For one assay, the target named is T1, GSPT1 (Homo sapiens, UniProt P15170+Q96SW2).
T1 construct: CAL-51 cells were purchased from DSMZ (cat. Number ACC302); host or cells: CAL-51
Nature of the assay: Immunofluorescence assay for activity to degrade GSPT1 in CAL-51 cells. The following applies: 6 h treatment, read-out: IF Class (GSPT1 degradation, DC50). The class given is cell-based. The method in brief:
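CAL-51 cells treated 6 h with compound (30 μM to 0.1 nM), fixed, immunostained for GSPT1 with DAPI and phalloidin counterstains, imaged by high-content microscopy. Mean per-cell GSPT1 intensity normalized to controls; DC50 by non-linear regression.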

Another assay has as its target CRBN-DDB1 (Homo sapiens, UniProt Q96SW2). Nature of the assay: Compound binding to CRBN by HTRF assay. Particulars: CRBN-DDB1 2.5 nM, Cy5-Thalidomide 100 nM, 30 min at ambient temperature; read-out: HTRF Class (Cereblon binding, HTRF IC50). The gist of the method: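 Cy5-thalidomide (100 nM) displacement from His-tagged CRBN-DDB1 (2.5 nM) read by terbium-cryptate HTRF (665/620 nm), in 20 mM HEPES, 20 mM NaCl, 0.2 mM TCEP, 0.2 mM EDTA, 0.005% Tween20. Compounds tested as 10-point 1:3 series, 30 min at ambient temperature. Signal normalised to DMSO and lenalidomide controls; IC50 fitted, Ki by Cheng-Prusoff.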
A general note: TR-FRET usually uses a lanthanide donor and a delayed reading to cut background.

T1 sequence (P15170 whole entry): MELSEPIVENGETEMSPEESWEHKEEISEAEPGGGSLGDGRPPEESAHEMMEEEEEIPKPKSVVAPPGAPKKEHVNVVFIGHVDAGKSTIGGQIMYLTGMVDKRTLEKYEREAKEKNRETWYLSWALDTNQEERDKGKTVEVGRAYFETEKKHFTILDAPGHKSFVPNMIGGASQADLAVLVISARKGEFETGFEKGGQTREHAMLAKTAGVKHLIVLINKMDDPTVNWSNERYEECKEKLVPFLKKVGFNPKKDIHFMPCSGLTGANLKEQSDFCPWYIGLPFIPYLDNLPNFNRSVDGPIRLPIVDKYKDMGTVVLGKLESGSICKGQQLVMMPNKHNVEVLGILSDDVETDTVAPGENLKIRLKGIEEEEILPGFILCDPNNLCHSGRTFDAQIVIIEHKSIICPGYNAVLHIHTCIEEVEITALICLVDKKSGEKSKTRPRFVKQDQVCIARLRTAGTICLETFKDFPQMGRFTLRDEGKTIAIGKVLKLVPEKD
T1 sequence (Q96SW2 whole entry): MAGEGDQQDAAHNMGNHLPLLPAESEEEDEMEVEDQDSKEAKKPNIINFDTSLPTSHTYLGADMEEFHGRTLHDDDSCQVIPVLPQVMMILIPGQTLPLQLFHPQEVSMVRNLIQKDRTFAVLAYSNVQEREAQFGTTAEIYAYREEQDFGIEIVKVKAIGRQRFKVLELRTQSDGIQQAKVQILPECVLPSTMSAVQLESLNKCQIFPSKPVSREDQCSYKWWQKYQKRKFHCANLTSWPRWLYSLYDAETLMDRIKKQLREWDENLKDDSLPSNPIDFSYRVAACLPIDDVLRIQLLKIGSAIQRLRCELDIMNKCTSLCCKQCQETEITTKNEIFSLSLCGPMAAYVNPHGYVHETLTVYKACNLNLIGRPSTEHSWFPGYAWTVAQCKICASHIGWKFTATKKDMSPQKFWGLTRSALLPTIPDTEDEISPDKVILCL
T1 sequence (Q16531 2-1140 partner limits assumed): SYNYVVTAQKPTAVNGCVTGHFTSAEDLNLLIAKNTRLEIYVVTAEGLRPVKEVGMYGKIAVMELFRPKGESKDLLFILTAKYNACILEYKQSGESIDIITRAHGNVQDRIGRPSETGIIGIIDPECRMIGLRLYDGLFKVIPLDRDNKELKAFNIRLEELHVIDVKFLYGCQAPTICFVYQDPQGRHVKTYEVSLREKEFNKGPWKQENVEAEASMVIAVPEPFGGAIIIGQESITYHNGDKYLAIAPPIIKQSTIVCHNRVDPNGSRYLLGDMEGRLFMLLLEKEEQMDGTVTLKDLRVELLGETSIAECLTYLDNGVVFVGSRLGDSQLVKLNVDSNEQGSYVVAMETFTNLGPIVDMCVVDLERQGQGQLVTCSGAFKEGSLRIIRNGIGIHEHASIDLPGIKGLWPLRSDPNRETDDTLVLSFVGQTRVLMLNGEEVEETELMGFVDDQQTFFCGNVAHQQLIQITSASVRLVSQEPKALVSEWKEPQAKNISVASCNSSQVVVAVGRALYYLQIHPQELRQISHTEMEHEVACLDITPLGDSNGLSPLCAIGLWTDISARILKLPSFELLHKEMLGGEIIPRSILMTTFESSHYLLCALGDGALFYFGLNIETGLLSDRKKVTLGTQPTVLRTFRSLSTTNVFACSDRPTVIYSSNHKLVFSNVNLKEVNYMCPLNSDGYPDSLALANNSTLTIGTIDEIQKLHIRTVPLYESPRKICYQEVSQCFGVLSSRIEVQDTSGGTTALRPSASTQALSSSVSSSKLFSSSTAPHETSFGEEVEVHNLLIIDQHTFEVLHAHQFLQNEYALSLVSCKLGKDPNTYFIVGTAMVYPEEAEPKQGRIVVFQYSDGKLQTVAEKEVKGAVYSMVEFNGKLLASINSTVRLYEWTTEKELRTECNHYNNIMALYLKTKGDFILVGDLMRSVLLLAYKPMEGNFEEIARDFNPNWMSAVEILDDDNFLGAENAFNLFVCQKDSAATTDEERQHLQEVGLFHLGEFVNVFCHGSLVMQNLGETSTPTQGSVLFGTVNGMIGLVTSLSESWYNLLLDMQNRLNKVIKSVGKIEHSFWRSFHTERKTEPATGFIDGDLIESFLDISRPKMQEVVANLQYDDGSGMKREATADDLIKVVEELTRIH
CRBN-DDB1, sequence (Q96SW2 whole entry): as the sequence (Q96SW2 whole entry) above
CRBN-DDB1, sequence (Q16531 whole entry partner): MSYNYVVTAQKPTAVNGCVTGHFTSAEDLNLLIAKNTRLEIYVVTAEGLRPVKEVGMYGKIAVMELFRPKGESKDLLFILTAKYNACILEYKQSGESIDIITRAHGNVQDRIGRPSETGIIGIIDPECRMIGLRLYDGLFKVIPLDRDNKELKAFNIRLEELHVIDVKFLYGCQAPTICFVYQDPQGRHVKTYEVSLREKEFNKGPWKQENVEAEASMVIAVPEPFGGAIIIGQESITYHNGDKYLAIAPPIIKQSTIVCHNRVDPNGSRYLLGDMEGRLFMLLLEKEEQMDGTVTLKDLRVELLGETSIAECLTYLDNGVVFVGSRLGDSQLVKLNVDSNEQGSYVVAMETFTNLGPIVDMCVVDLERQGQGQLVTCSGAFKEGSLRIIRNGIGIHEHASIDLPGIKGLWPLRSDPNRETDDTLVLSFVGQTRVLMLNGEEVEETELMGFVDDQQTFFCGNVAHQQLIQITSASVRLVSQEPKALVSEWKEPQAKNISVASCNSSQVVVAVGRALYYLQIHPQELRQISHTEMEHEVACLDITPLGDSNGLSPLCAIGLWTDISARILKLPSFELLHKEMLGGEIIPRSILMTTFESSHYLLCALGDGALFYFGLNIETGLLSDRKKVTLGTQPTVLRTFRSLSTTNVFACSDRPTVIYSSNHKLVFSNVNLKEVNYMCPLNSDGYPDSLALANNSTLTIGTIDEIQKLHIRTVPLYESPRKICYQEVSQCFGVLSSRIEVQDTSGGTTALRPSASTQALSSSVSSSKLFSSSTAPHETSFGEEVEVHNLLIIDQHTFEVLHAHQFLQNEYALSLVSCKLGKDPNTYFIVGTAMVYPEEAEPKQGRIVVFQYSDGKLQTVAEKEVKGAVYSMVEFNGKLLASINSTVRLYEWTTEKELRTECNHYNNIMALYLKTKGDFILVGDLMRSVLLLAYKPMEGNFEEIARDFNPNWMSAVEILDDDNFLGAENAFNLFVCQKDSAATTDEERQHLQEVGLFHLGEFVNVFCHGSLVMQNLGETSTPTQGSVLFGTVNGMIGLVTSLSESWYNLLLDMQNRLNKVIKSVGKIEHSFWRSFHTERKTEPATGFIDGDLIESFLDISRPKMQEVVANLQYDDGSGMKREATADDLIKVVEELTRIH

In general, DC50 refers to the concentration at which degradation of the target reaches its halfway point. Broadly, the IC50 is the concentration that gives 50% inhibition. Turning to `O=C1CCC(c2c(F)cc(N3CC(OC(=O)N[C@H]4CCOC4)C3)cc2F)C(=O)N1` (stereo partly drawn) [Compound 81, 1-(4-(2,6-dioxopiperidin-3-yl)-3,5-difluorophenyl)azetidin-3-yl ((S)-tetrahydrofuran-3-yl)carbamate], the DC50 on GSPT1 is over 300 nM. For the same compound, the IC50 on CRBN-DDB1 lay within 100 to 1000 nM.
For `O=C1CCC(c2c(F)cc(N3CC(OC(=O)NCC4CC4)C3)cc2F)C(=O)N1` (stereo not shown) [Compound 82, 1-(4-(2,6-dioxopiperidin-3-yl)-3,5-difluorophenyl)azetidin-3-yl (cyclopropylmethyl)carbamate], the DC50 at GSPT1 is over 300 nM. In addition, at CRBN-DDB1, the IC50 lay in the range of 100 to 1000 nM.
In the case of `O=C1CCC(c2c(F)cc(N3CC(OC(=O)N[C@@H]4CCOC4)C3)cc2F)C(=O)N1` (stereo partly drawn) [Compound 83, 1-(4-(2,6-dioxopiperidin-3-yl)-3,5-difluorophenyl)azetidin-3-yl ((R)-tetrahydrofuran-3-yl)carbamate], the DC50 at GSPT1 is over 300 nM. For the same compound, at CRBN-DDB1, the IC50 lay within 100 to 1000 nM.
The like results for `O=C1CCC(c2c(F)cc(N3CC(OC(=O)N[C@H]4CCCOC4)C3)cc2F)C(=O)N1` (stereo partly drawn) [Compound 84, 1-(4-(2,6-dioxopiperidin-3-yl)-3,5-difluorophenyl)azetidin-3-yl ((S)-tetrahydro-2H-pyran-3-yl)carbamate] were, in that order, over 300 nM and 100 to 1000 nM.
For `O=C1CCC(c2c(F)cc(N3CC(OC(=O)N[C@@H]4CCCOC4)C3)cc2F)C(=O)N1` (stereo partly drawn) [Compound 85, 1-(4-(2,6-dioxopiperidin-3-yl)-3,5-difluorophenyl)azetidin-3-yl((R)-tetrahydro-2H-pyran-3-yl)carbamate], the DC50 on GSPT1 was over 300 nM. Moreover, the half-maximal inhibitory concentration (IC50) on CRBN-DDB1 was 100 to 1000 nM.
For the compound `O=C1CCC(c2c(F)cc(N3CC(OC(=O)NC4CC4)C3)cc2F)C(=O)N1` (stereo not shown) [Compound 86, 1-(4-(2,6-dioxopiperidin-3-yl)-3,5-difluorophenyl)azetidin-3-yl cyclopropylcarbamate], at GSPT1, the DC50 is over 300 nM. Moreover, at CRBN-DDB1, the IC50 was 100 to 1000 nM.
Regarding `O=C1CCC(c2c(F)cc(N3CC(OC(=O)NCC(F)(F)F)C3)cc2F)C(=O)N1` (stereo not shown) [Compound 87, 1-(4-(2,6-dioxopiperidin-3-yl)-3,5-difluorophenyl)azetidin-3-yl (2,2,2-trifluoroethyl)carbamate], on GSPT1, the DC50 was over 300 nM. Besides, on CRBN-DDB1, the concentration for half-maximal inhibition (IC50) is 100 to 1000 nM.
For the compound `O=C1CCC(c2c(F)cc(N3CC(OC(=O)NC4CC(F)(F)C4)C3)cc2F)C(=O)N1` (stereo not shown) [Compound 88, 1-(4-(2,6-dioxopiperidin-3-yl)-3,5-difluorophenyl)azetidin-3-yl(3,3-difluorocyclobutyl)carbamate], on GSPT1, the DC50 was over 300 nM. Besides, the IC50 at CRBN-DDB1 lay in the range of 100 to 1000 nM.
`CC(C)(C)NC(=O)OC1CN(c2cc(F)c(C3CCC(=O)NC3=O)c(F)c2)C1` (stereo not shown) [Compound 89, 1-(4-(2,6-dioxopiperidin-3-yl)-3,5-difluorophenyl)azetidin-3-yl tert-butylcarbamate]: on GSPT1, the DC50 is over 300 nM. The IC50 on CRBN-DDB1 fell in the range of 100 to 1000 nM.
With `O=C1CCC(c2c(F)cc(N3CC(OC(=O)NC4CCC4)C3)cc2F)C(=O)N1` (stereo not shown) [Compound 90, 1-(4-(2,6-dioxopiperidin-3-yl)-3,5-difluorophenyl) azetidin-3-yl cyclobutylcarbamate], on GSPT1, the DC50 is over 300 nM. Moreover, on CRBN-DDB1, the IC50 lay within 100 to 1000 nM.
The like results for `O=C1CCC(c2c(F)cc(N3CC(OC(=O)NCC4CCC4)C3)cc2F)C(=O)N1` (stereo not shown) [Compound 91, 1-(4-(2,6-dioxopiperidin-3-yl)-3,5-difluorophenyl)azetidin-3-yl (cyclobutylmethyl)carbamate] were, in that order, 30 to 300 nM and 100 to 1000 nM.
In the case of `O=C1CCC(c2c(F)cc(N3CC(OC(=O)NC4CCCC4)C3)cc2F)C(=O)N1` (stereo not shown) [Compound 92, 1-(4-(2,6-dioxopiperidin-3-yl)-3,5-difluorophenyl)azetidin-3-yl cyclopentylcarbamate], the DC50 at GSPT1 was over 300 nM. Further, at CRBN-DDB1, the IC50 fell in the range of 100 to 1000 nM.
Regarding `CC1(C)CCC(NC(=O)OC2CN(c3cc(F)c(C4CCC(=O)NC4=O)c(F)c3)C2)CC1` (stereo not shown) [Compound 93, 1-(4-(2,6-dioxopiperidin-3-yl)-3,5-difluorophenyl)azetidin-3-yl (4,4-dimethylcyclohexyl) carbamate], the DC50 at GSPT1 is at most 30 nM. Also, the IC50 at CRBN-DDB1 is at most 100 nM.
For the compound `O=C1CCC(c2c(F)cc(N3CC(OC(=O)NC4CCOCC4)C3)cc2F)C(=O)N1` (stereo not shown) [Compound 94, 1-(4-(2,6-dioxopiperidin-3-yl)-3,5-difluorophenyl)azetidin-3-yl (tetrahydro-2H-pyran-4-yl)carbamate], the DC50 at GSPT1 was over 300 nM. Further, the IC50 at CRBN-DDB1 is 100 to 1000 nM.
Consider `O=C1CCC(c2c(F)cc(N3CC(OC(=O)NC4COC4)C3)cc2F)C(=O)N1` (stereo not shown) [Compound 95, 1-(4-(2,6-dioxopiperidin-3-yl)-3,5-difluorophenyl)azetidin-3-yl oxetan-3-ylcarbamate], for which the DC50 on GSPT1 is over 300 nM. Moreover, the IC50 on CRBN-DDB1 is 100 to 1000 nM.
As for `O=C1CCC(c2c(F)cc(N3CC(OC(=O)NCC4CC(F)(F)C4)C3)cc2F)C(=O)N1` (stereo not shown) [Compound 96, 1-(4-(2,6-dioxopiperidin-3-yl)-3,5-difluorophenyl)azetidin-3-yl ((3,3-difluorocyclobutyl)methyl)carbamate], the DC50 on GSPT1 lay within 30 to 300 nM. Moreover, the IC50 at CRBN-DDB1 was in the range of 100 to 1000 nM.
Consider `CC1(C)CC(NC(=O)OC2CN(c3cc(F)c(C4CCC(=O)NC4=O)c(F)c3)C2)C1` (stereo not shown) [Compound 97, 1-(4-(2,6-dioxopiperidin-3-yl)-3,5-difluorophenyl)azetidin-3-yl (3,3-dimethylcyclobutyl)carbamate], for which the DC50 at GSPT1 was at most 30 nM. Also, on CRBN-DDB1, the IC50 is at most 100 nM.
For `C[C@@H](NC(=O)OC1CN(c2cc(F)c(C3CCC(=O)NC3=O)c(F)c2)C1)c1ccccc1` (stereo partly drawn) [Compound 123, 1-(4-(2,6-dioxopiperidin-3-yl)-3,5-difluorophenyl)azetidin-3-yl((R)-1-phenylethyl)carbamate], in that order: at most 30 nM and at most 100 nM.
Turning to `C[C@H]1CC[C@H](NC(=O)OC2CN(c3cc(F)c(C4CCC(=O)NC4=O)c(F)c3)C2)CC1` (stereo partly drawn) [Compound 124, 1-(4-(2,6-dioxopiperidin-3-yl)-3,5-difluorophenyl)azetidin-3-yl((1R,4R)-4-methylcyclohexyl) carbamate], on GSPT1, the DC50 is at most 30 nM. Also, at CRBN-DDB1, the IC50 was at most 100 nM.
Take `CC(C)CCNC(=O)OC1CN(c2cc(F)c(C3CCC(=O)NC3=O)c(F)c2)C1` (stereo not shown) [Compound 125, 1-(4-(2,6-dioxopiperidin-3-yl)-3,5-difluorophenyl)azetidin-3-yl isopentylcarbamate]: on GSPT1, the DC50 was at most 30 nM. On CRBN-DDB1, the IC50 is 100 to 1000 nM.
With `CC(C)(C)N1CC(NC(=O)OC2CN(c3cc(F)c(C4CCC(=O)NC4=O)c(F)c3)C2)C1` (stereo not shown) [Compound 126, 1-(4-(2,6-dioxopiperidin-3-yl)-3,5-difluorophenyl)azetidin-3-yl(1-(tert-butyl)azetidin-3-yl)carbamate], at GSPT1, the DC50 is over 300 nM. Moreover, the IC50 on CRBN-DDB1 was at most 100 nM.
Turning to `O=C1CCC(c2c(F)cc(N3CC(OC(=O)NCC4CCCCC4)C3)cc2F)C(=O)N1` (stereo not shown) [Compound 127, 1-(4-(2,6-dioxopiperidin-3-yl)-3,5-difluorophenyl)azetidin-3-yl(cyclohexylmethyl) carbamate], the DC50 on GSPT1 is at most 30 nM. Besides, the IC50 at CRBN-DDB1 is 100 to 1000 nM.
The like results for `O=C1CCC(c2c(F)cc(N3CC(OC(=O)N[C@H]4C[C@H](c5ccccc5)C4)C3)cc2F)C(=O)N1` (stereo partly drawn) [Compound 128, 1-(4-(2,6-dioxopiperidin-3-yl)-3,5-difluorophenyl)azetidin-3-yl((1R,3R)-3 phenylcyclobutyl) carbamate] were, in that order, at most 30 nM and 100 to 1000 nM.
In the case of `C[C@@H](NC(=O)OC1CN(c2cc(F)c(C3CCC(=O)NC3=O)c(F)c2)C1)C1CCCCC1` (stereo partly drawn) [Compound 129, 1-(4-(2,6-dioxopiperidin-3-yl)-3,5-difluorophenyl)azetidin-3-yl ((R)-1-cyclohexylethyl)carbamate], the DC50 on GSPT1 is 30 to 300 nM. Moreover, on CRBN-DDB1, the IC50 was at most 100 nM.
As to `C[C@H](NC(=O)OC1CN(c2cc(F)c(C3CCC(=O)NC3=O)c(F)c2)C1)c1ccccc1` (stereo partly drawn) [Compound 130, 1-(4-(2,6-dioxopiperidin-3-yl)-3,5-difluorophenyl)azetidin-3-yl((S)-1-phenylethyl) carbamate], the DC50 on GSPT1 was over 300 nM. Also, the IC50 at CRBN-DDB1 was 100 to 1000 nM.
Turning to `CCCCNC(=O)OC1CN(c2cc(F)c(C3CCC(=O)NC3=O)c(F)c2)C1` (stereo not shown) [Compound 131, 1-(4-(2,6-dioxopiperidin-3-yl)-3,5-difluorophenyl)azetidin-3-yl butylcarbamate], the DC50 at GSPT1 lay within 30 to 300 nM. Besides, the IC50 at CRBN-DDB1 was 100 to 1000 nM.
For the compound `CC(C)CNC(=O)OC1CN(c2cc(F)c(C3CCC(=O)NC3=O)c(F)c2)C1` (stereo not shown) [Compound 132, 1-(4-(2,6-dioxopiperidin-3-yl)-3,5-difluorophenyl)azetidin-3-yl isobutylcarbamate], at GSPT1, the DC50 was over 300 nM. Also, on CRBN-DDB1, the IC50 was 100 to 1000 nM.
As to `CO[C@H]1CC[C@H](NC(=O)OC2CN(c3cc(F)c(C4CCC(=O)NC4=O)c(F)c3)C2)CC1` (stereo partly drawn) [Compound 133, 1-(4-(2,6-dioxopiperidin-3-yl)-3,5-difluorophenyl)azetidin-3-yl ((1R,4R)-4-methoxycyclohexyl)carbamate], the DC50 at GSPT1 is 30 to 300 nM. Moreover, the IC50 on CRBN-DDB1 lay within 100 to 1000 nM.
For `O=C1CCC(c2c(F)cc(N3CC(OC(=O)NC4CCCCCC4)C3)cc2F)C(=O)N1` (stereo not shown) [Compound 134, 1-(4-(2,6-dioxopiperidin-3-yl)-3,5-difluorophenyl)azetidin-3-yl cycloheptylcarbamate], in that order: at most 30 nM and at most 100 nM.
